These results are taken from publication PMC7999182, “Interaction of Remdesivir with Clinically Relevant Hepatic Drug Uptake Transporters” (Pharmaceutics, 2021).

The conditions of series [1]: cited from earlier work.
A further series relates to OATP2B1. Set-up: method as in PMID 33435273. The note with it: pyranine transport; cited from earlier work.
The next series concerns the target T1, OATP1B1*5 (Homo sapiens, UniProt Q9Y6L6, V174A).
T1 construct: expressed in transfected cells
T1 sequence (Q9Y6L6 1-691 V174A): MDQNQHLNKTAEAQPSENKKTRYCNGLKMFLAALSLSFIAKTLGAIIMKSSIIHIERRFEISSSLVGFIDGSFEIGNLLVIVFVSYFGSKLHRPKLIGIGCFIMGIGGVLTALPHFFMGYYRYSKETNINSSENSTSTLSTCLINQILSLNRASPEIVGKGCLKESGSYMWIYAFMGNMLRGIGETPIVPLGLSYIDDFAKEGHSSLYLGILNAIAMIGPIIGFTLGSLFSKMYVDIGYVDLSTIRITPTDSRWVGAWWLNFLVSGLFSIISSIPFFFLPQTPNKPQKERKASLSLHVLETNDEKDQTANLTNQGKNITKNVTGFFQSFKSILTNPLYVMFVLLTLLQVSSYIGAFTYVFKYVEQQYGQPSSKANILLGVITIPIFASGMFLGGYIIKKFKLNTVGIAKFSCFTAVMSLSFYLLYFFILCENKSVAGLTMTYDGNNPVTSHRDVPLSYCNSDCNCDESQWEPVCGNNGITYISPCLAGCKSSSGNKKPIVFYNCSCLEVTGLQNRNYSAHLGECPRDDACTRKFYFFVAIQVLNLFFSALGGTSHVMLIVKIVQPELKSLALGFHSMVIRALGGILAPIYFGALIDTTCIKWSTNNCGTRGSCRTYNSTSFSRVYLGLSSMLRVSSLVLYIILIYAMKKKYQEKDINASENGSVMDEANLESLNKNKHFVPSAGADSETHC
Briefly: Remdesivir uptake into HEK cells stably expressing OATP1B1*5 vs vector control. It is filed as in vitro ADME. The note with it: 0.5 µM remdesivir, 10 min. The text has this:
Generation, cultivation and characterization of human embryonic kidney (HEK) cells stably expressing OATP1B1 refseq (=OATP1B1*1a), OATP1B1*1b, OATP1B1*5 and OATP1B1*15 [18], OATP1B3 [19], OATP2B1 [13] and OCT1 [20] have been described previously. OATP1B1 cells were cultivated in minimal essential medium (Life Technologies, Paisley, UK) and OATP1B3, OATP2B1 and OCT1 cells were cultivated in Dulbecco’s modified Eagle medium (Sigma, Darmstadt, Germany). Cultivation media were supplemented with 10% fetal calf serum, 100 U/mL penicillin and 100 µg/mL streptomycin. Cells were grown at 37 °C and 5% CO2. Functionality of the cells was confirmed by measuring uptake of prototypic substrates (see Section 2.3 and supplementary material).
Uptake assays were conducted at 37 °C according to previously described methods. For this, cells were seeded in 24-well plates (320,000 cells/well) and cultured for 2 days. Cells were then incubated for a further 24 h in culture medium with 5 mM butyrate (OATP1B3, OATP2B1, OCT1) or 10 mM butyrate (OATP1B1) to increase protein levels of recombinant transporters. […]
Remdesivir was determined by UHPLC-MS-MS analysis on an Agilent 1290 infinity UHPLC system coupled to an Agilent 6495B triple quadrupole mass spectrometer (Agilent, Waldbronn, Germany) similar to a recently published method. […]

For orientation: Cmax means the maximum level reached in the sampled fluid or tissue. In general, IC50 refers to the concentration at which inhibition is half-maximal. As to `CCC(CC)COC(=O)[C@H](C)N[P@](=O)(OC[C@H]1O[C@@](C#N)(c2ccc3c(N)ncnn23)[C@H](O)[C@@H]1O)Oc1ccccc1` [Remdesivir], the peak plasma concentration in series [1] (30 min after iv administration of 200 mg remdesivir for 30 min) is reported as about 10 µM. Moreover, the t1/2 in series [1] was 1 h. Further, in series [1] (intravenous 100 mg remdesivir, healthy adults), the Cmax was 3.7 µM. For the same compound, in the series with OATP2B1, the IC50 is 3.8 µM. Moreover, at OATP1B1*5, the “Uptake vs vector-transfected control cells” value is “significantly lower uptake”.
